# Test results reported in US20080287430A1, “Furan Compounds Useful As Ep1 Receptor Antagonists” (priority 2005, published 2008).
# Molecular target: T1, human EP1 receptor (Homo sapiens, UniProt P34995)
# T1 construct: expressed in transfected cells; host or cells: CHO-K1
# T1 sequence (P34995 1-402): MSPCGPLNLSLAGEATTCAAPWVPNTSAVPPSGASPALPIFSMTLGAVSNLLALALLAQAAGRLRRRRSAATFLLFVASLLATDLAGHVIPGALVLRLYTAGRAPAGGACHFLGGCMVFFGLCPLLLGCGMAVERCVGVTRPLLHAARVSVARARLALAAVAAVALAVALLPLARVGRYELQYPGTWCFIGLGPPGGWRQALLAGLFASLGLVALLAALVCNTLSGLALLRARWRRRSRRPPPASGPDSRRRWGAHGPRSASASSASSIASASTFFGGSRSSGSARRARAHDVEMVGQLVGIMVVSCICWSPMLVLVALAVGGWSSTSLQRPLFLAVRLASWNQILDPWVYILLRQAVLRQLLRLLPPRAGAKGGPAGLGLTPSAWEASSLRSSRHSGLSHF
# Experiment: human EP1 calcium mobilisation assay
# Type: cell-based
# Settings: human EP1, PGE2-induced calcium mobilisation in CHO-K1 cells; free bases or sodium salts; averages of a number of experiments; read-out: functional pKi value (converted)
# Description: Briefly, the antagonist properties of compounds are assessed by their ability to inhibit the mobilisation of intracellular calcium ([Ca^2+]i) in response to activation of EP1 or EP3 receptors by the natural agonist hormone prostaglandin E2 (PGE2). Increasing concentrations of antagonist reduce the amount of calcium that a given concentration of PGE2 can mobilise. The net effect is to displace the PGE2 concentration-effect curve to higher concentrations of PGE2. The amount of calcium produced is assessed using a calcium-sensitive fluorescent dye such as Fluo-4, AM and a suitable instrument such as a Fluorimetric Imaging Plate Reader (FLIPR). Increasing amounts of [Ca^2+]i produced by receptor activation increase the amount of fluorescence produced by the dye and give rise to an increasing signal. The signal may be detected using the FLIPR instrument and the data generated may be analysed with suitable curve-fitting software.
# The human EP1 or EP3 calcium mobilisation assay (hereafter referred to as ‘the calcium assay’) utilises Chinese hamster ovary-K1(CHO-K1) cells into which a stable (pCIN; BioTechniques 20 (1996): 102-110) vector containing either EP1 or EP3 cDNA has previously been transfected. Cells are cultured in suitable flasks containing culture medium such as DMEM:F-12 supplemented with 10% v/v foetal calf serum, 2 mM L-glutamine, 0.25 mg/ml geneticin, 100 μM flurbiprofen and 10 μg/ml puromycin.
# For assay, cells are harvested using a proprietary reagent that dislodges cells such as Versene. Cells are re-suspended in a suitable quantity of fresh culture media for introduction into a 384-well plate. Following incubation for 24 hours at 37° C. the culture media is replaced with a medium containing Fluo-4 and the detergent pluronic acid, and a further incubation takes place. Concentrations of compounds are then added to the plate in order to construct concentration-effect curves. This may be performed on the FLIPR in order to assess the agonist properties of the compounds. Concentrations of PGE2 are then added to the plate in order to assess the antagonist properties of the compounds.
# The data so generated may be analysed by means of a computerised curve-fitting routine. The concentration of compound that elicits a half-maximal inhibition of the calcium mobilisation induced by PGE2 (pIC50) may then be estimated.
row,SMILES,Ki
1,"Cc1cc(C(=O)O)oc1Cc1cc(Cl)ccc1OCC(C)C [Example 14, Sodium 5-({5-chloro-2-[(2-methylpropyl)oxy]phenyl}methyl)-4-methyl-2-furancarboxylate]",≤ 0.01 µM
2,"O=C(O)Cc1ccc(Cc2cc(Cl)ccc2OCc2ccccc2)o1 [Example 16, Sodium [5-({5-chloro-2-[(phenylmethyl)oxy]phenyl}methyl)-2-furanyl]acetate]",≤ 0.01 µM
3,"O=C(O)c1ccc(Cc2cc(Cl)ccc2OCc2cc(F)c(F)c(F)c2)o1 [Example 24, Sodium 5-[(5-chloro-2-{[(3,4,5-trifluorophenyl)methyl]oxy}phenyl)methyl]-2-furancarboxylate]",≤ 0.01 µM
4,"CC(C)COc1ccc(Cl)cc1Cc1ccc(NC(=O)OC(C)(C)C)o1 [Example 29, 1,1-Dimethylethyl[5-({5-chloro-2-[(2-methylpropyl)oxy]phenyl}methyl)-2-furanyl]carbamate]",< 1 µM
5,"Cc1cc(NC(=O)OC(C)(C)C)oc1Cc1cc(Cl)ccc1OCC(C)C [Example 30, 1,1-Dimethylethyl[5({5-chloro-2-[(2-methylpropyl)oxy]phenyl}methyl)-4-methyl-2-furanyl]carbamate]",< 1 µM
6,"Cc1cc(C(=O)NCc2ccccc2)oc1Cc1cc(Cl)ccc1OCc1ccccc1 [Example 31, 5-({5-Chloro-2-[(phenylmethyl)oxy]phenyl}methyl)-4-methyl-N-(phenylmethyl)-2-furancarboxamide]",< 1 µM
7,"Cc1cc(C(=O)NCc2ccccc2)oc1Cc1cc(Cl)ccc1OCC(C)C [Example 32, 5-({5-Chloro-2-[(2-methylpropyl)oxy]phenyl}methyl)-4-methyl-N-(phenylmethyl)-2-furancarboxamide]",< 1 µM
8,"CC(C)COc1ccc(Cl)cc1Cc1ccc(C(=O)Nc2ccccc2)o1 [Example 34, 5-({5-Chloro-2-[(2-methylpropyl)oxy]phenyl}methyl)-N-phenyl-2-furancarboxamide]",< 1 µM
9,CC(C)COc1ccc(Cl)cc1Cc1ccc(C(=O)NCc2ccc(F)cc2)o1 [Example 37],< 1 µM
10,"CC(C)COc1ccc(Cl)cc1Cc1ccc(C(=O)NCc2ccc(C(F)(F)F)cc2)o1 [Example 38, 5-({5-Chloro-2-[(2-methylpropyl)oxy]phenyl}methyl)-N-{[4-(trifluoromethyl)phenyl]methyl}-2-furancarboxamide]",< 1 µM
11,"CC(C)COc1ccc(Cl)cc1Cc1ccc(C(=O)NCc2ccc3c(c2)OCO3)o1 [Example 39, N-(1,3-Benzodioxol-5-ylmethyl)-5-({5-chloro-2-[(2-methylpropyl)oxy]phenyl}methyl)-2-furancarboxamide]",< 1 µM
12,"COc1ccc(CNC(=O)c2ccc(Cc3cc(Cl)ccc3OCC(C)C)o2)cc1 [Example 40, 5-({5-Chloro-2-[(2-methylpropyl)oxy]phenyl}methyl)-N-{[4-(methyloxy)phenyl]methyl}-2-furancarboxamide]",< 1 µM
13,"CC(C)COc1ccc(Cl)cc1Cc1ccc(C(=O)NCc2ccc(Cl)cc2)o1 [Example 41, 5-({5-Chloro-2-[(2-methylpropyl)oxy]phenyl}methyl)-N-[(4-chlorophenyl)methyl]-2-furancarboxamide]",< 1 µM
14,"CC(C)COc1ccc(Cl)cc1Cc1ccc(C(=O)NCc2ccc(C#N)cc2)o1 [Example 42, 5-({5-Chloro-2-[(2-methylpropyl)oxy]phenyl}methyl)-N-[(4-cyanophenyl)methyl]-2-furancarboxamide]",< 1 µM
15,"CC(C)COc1ccc(Cl)cc1Cc1ccc(C(=O)NCc2c(F)cccc2F)o1 [Example 43, 5-({5-Chloro-2-[(2-methylpropyl)oxy]phenyl}methyl)-N-[(2,6-difluorophenyl)methyl]-2-furancarboxamide]",< 1 µM
16,"CC(C)COc1ccc(Cl)cc1Cc1ccc(C(=O)NCc2cccc(F)c2F)o1 [Example 44, 5-({5-Chloro-2-[(2-methylpropyl)oxy]phenyl}methyl)-N-[(2,3-difluorophenyl)methyl]-2-furancarboxamide]",< 1 µM
17,"CC(C)COc1ccc(Cl)cc1Cc1ccc(C(=O)NCc2ccc(-c3cccnc3)cc2)o1 [Example 45, 5-({5-Chloro-2-[(2-methylpropyl)oxy]phenyl}methyl)-N-{[4-(3-pyridinyl)phenyl]methyl}-2-furancarboxamide]",< 1 µM
18,"CC(C)COc1ccc(Cl)cc1Cc1ccc(C(=O)NCc2ccc(C(N)=O)cc2)o1 [Example 46, N-{[4-(Aminocarbonyl)-phenyl]methyl}-5-({5-chloro-2-[(2-methylpropyl)oxy]phenyl}methyl)-2-furancarboxamide]",< 1 µM
19,"CC(C)COc1ccc(Cl)cc1Cc1ccc(C(=O)NCc2cccc3ccccc23)o1 [Example 47, 5-({5-Chloro-2-[(2-methylpropyl)oxy]phenyl}methyl)-N-(1-naphthalenylmethyl)-2-furancarboxamide]",< 1 µM
20,"O=C(NCc1ccccc1)c1ccc(Cc2cc(Cl)ccc2OCc2ccccc2)o1 [Example 48, 5-({5-Chloro-2-[(phenylmethyl)oxy]phenyl}methyl)-N-(phenylmethyl)-2-furancarboxamide]",< 1 µM
21,"CC(C)NC(=O)c1ccc(Cc2cc(Cl)ccc2OCc2ccccc2)o1 [Example 49, 5-({5-Chloro-2-[(phenylmethyl)oxy]phenyl}methyl)-N-(1-methylethyl)-2-furancarboxamide]",< 1 µM
22,"CC(C)CNC(=O)c1ccc(Cc2cc(Cl)ccc2OCc2ccccc2)o1 [Example 50, 5-({5-Chloro-2-[(phenylmethyl)oxy]phenyl}methyl)-N-(2-methylpropyl)-2-furancarboxamide]",< 1 µM

# The remaining lines, values ahead:
row,Ki,SMILES
1,< 1 µM,"CCCOc1ccc(Cl)cc1Cc1ccc(C(=O)O)o1 [Example 1, Sodium 5-{[5-chloro-2-(propyloxy)phenyl]methyl}-2-furancarboxylate]"
2,< 1 µM,"CC(C)Oc1ccc(Cl)cc1Cc1ccc(C(=O)O)o1 [Example 2, Sodium 5-({5-chloro-2-[(1-methylethyl)oxy]phenyl}methyl)-2-furancarboxylate]"
3,< 1 µM,"CCC(CC)Oc1ccc(Cl)cc1Cc1ccc(C(=O)O)o1 [Example 4, Sodium 5-({5-chloro-2-[(1-ethylpropyl)oxy]phenyl}methyl)-2-furancarboxylate]"
4,< 1 µM,"COCCOc1ccc(Cl)cc1Cc1ccc(C(=O)O)o1 [Example 8, Sodium 5-[(5-chloro-2-{[2-(methyloxy)ethyl]oxy}phenyl)methyl]-2-furancarboxylate]"
5,< 1 µM,"Cc1cc(COc2ccc(Cl)cc2Cc2ccc(C(=O)O)o2)on1 [Example 9, Sodium 5-[(5-chloro-2-{[(3-methyl-5-isoxazolyl)methyl]oxy}phenyl)methyl]-2-furancarboxylate]"
6,< 1 µM,"CC(C)CCOc1ccc(Cl)cc1Cc1ccc(C(=O)O)o1 [Example 11, Sodium 5-({5-chloro-2-[(3-methylbutyl)oxy]phenyl}methyl)-2-furancarboxylate]"
7,< 1 µM,"O=C(O)c1ccc(Cc2cc(Cl)ccc2OCCc2ccccc2)o1 [Example 12, Sodium 5-({5-chloro-2-[(2-phenylethyl)oxy]phenyl}methyl)-2-furancarboxylate]"
8,≤ 0.01 µM,"O=C(O)c1ccc(Cc2cc(Cl)ccc2OCc2ccncc2Cl)o1 [Example 17, Sodium 5-[(5-chloro-2-{[(3-chloro-4-pyridinyl)methyl]oxy}phenyl)methyl]-2-furancarboxylate]"
9,≤ 0.01 µM,"O=C(O)c1ccc(Cc2cc(Cl)ccc2OCc2ccccn2)o1 [Example 26, Sodium 5-({5-chloro-2-[(2-pyridinylmethyl)oxy]phenyl}methyl)-2-furancarboxylate]"
10,< 1 µM,"O=C(O)c1ccc(Cc2cc(Cl)ccc2OCc2cccnc2)o1 [Example 27, Sodium 5-({5-chloro-2-[(3-pyridinylmethyl)oxy]phenyl}methyl)-2-furancarboxylate]"
11,≤ 0.01 µM,"O=C(O)c1ccc(Cc2cc(Cl)ccc2OCc2ccncc2)o1 [Example 28, Sodium 5-({5-chloro-2-[(4-pyridinylmethyl)oxy]phenyl}methyl)-2-furancarboxylate]"
